Results: PubChem BioAssay AID1329 (NMMLSC, 2008)
The source made the active and inactive calls. How the calls were made is not given here.

target: Induced myeloid leukemia cell differentiation protein Mcl-1 (Homo sapiens) (UniProt Q07820); assay: modulators of Bim peptide binding to Mcl-1, dose response, biochemical, bead-based flow cytometry, multiplexed, human (AID 1329); settings: Bim peptide-Mcl-1 binding, MCF
Sequence (Q07820 whole entry, looked up): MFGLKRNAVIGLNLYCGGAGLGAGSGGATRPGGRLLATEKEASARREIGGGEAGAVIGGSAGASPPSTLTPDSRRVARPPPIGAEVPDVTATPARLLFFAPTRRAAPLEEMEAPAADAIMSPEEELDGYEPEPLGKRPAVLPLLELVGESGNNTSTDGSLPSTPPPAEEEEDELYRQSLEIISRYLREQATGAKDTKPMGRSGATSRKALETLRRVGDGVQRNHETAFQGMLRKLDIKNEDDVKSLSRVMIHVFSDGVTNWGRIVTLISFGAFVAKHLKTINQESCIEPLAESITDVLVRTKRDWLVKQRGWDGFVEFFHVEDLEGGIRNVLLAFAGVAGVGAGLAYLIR

SMILES	percent span
CCNC(=O)N1c2ccc(OCC)cc2C(C)=CC1(C)C	inactive
CC1CC2=C(NC(=S)NC2c2cccc(F)c2)/C(=C/c2cccc(F)c2)C1 (stereo not given)	inactive
Cc1ccc(N=C2NC(=O)/C(=C/C=C/c3ccco3)S2)cc1	inactive
CCN(CC)c1ccc(NC(=O)c2ccccc2)cc1S(=O)(=O)Nc1ccccc1OC	inactive
COc1ccccc1-n1c(-c2ccccc2)c[nH]c1=S	inactive
CCOC(=O)c1ccc(NC(=O)CSCCC(=O)O)cc1	inactive
O=C(CSc1ccc2nnc(-c3ccncc3)n2n1)Nc1nccs1	inactive
Cc1cc(N2CCN(C)CC2)nc2ccc(NC(=S)N3CCC4(CC3)OCCO4)cc12	inactive
COc1ccc(C(=O)Nc2ccc(C(=O)OCC(=O)c3cccc4ccccc34)cc2)cc1	inactive
O=C(C[n+]1ccc(-c2nnc3n2CCC3)cc1)c1ccc(Cl)cc1	inactive
CCN(CC)c1ccc(-c2nn3c(-c4cccnc4)nnc3s2)cc1	inactive
COc1ccc(NC(=O)C2=C(C)NC(=O)NC2c2cccc(OC)c2OC)c(OC)c1 (stereo not given)	inactive
CCc1ccc(/C=C/C(=O)c2cc(Br)ccc(=O)c2O)cc1	inactive
O=C(Nc1ccncc1)c1cc2ccccc2o1	inactive
O=S1(=O)N=C(N(CCO)/N=C/c2ccccc2)c2ccccc21	inactive
Oc1ccc(NCc2ccccc2OCc2ccccc2)cc1	inactive
CC(=O)Nc1ccc(-n2cc(-c3ccccc3)[nH]c2=S)cc1	inactive
Cc1nonc1NC(=O)CSc1nnc(-c2ccoc2C)n1C	inactive
COc1ccc(C(=O)/C=C/c2cc(OC)c(O)c(OC)c2)c(F)c1	inactive
CC(CCc1ccccc1)NC(=O)C1CCN(S(=O)(=O)N2CCCCC2)CC1 (stereo not given)	inactive
CCc1ccc(NC(=O)CC2NCCNC2=O)cc1 (stereo not given)	inactive
CCCCCCc1cc2cc(C(=O)Nc3ccccc3)c(=O)oc2cc1O	inactive
Cc1c(Cc2ccccc2)sc(N)c1C(N)=O	inactive
O=C(NCCCN1CCCC1=O)NC1CCCCC1	inactive
CCOC(=O)c1[nH]cnc1C(=O)NC(C)C	inactive
Cc1cnnn1-c1ccc(C(=O)CCl)cc1	inactive
CNCc1ccccc1Sc1cc(O)ccc1O	inactive

SMILES	percent span
O=C(NC1=NCCS1)NC12CC3CC(CC(C3)C1)C2	inactive
S=C(Nc1ccc(N2CCOCC2)cc1)Nc1ccc2nc(-c3ccco3)c(-c3ccco3)nc2c1	inactive
CN(C)C(=O)N1CCC(C(=O)NC2CCCCCCC2)CC1	inactive
COc1ccccc1NC(=O)CSc1nnc(-c2ccco2)n1Cc1ccco1	inactive
Cc1ccc(-c2c3c([nH]c(=S)c2C#N)CCCC3)o1	inactive
Cc1nc(NC(=O)CC(C)C)sc1-c1csc(Nc2ccc(Cl)cc2)n1	inactive
O=C(NCCCN1CCN(CCCNC(=O)c2cc([N+](=O)[O-])ccc2Cl)CC1)c1cc([N+](=O)[O-])ccc1Cl	inactive
CCOc1ccc(C(=O)Nc2nnc(NC(=S)Nc3ccccc3)s2)cc1	inactive
Cc1ccc(-c2cc(C(=O)Nc3ccccn3)c3ccccc3n2)o1	inactive
CCCc1nnc2n1N=C(c1ccc(-c3cc(Cl)ccc3Cl)o1)CS2	inactive
CCN1CCN(c2cc(C)c3cc(NC(=S)N4CCN(c5ccccc5)CC4)ccc3n2)CC1	inactive
CS(=O)(=O)NN1C(=O)c2ccccc2NC1c1cccs1 (stereo not given)	inactive
CCOc1cccc(CNc2ccc(O)cc2)c1OCc1ccc(Cl)cc1	inactive
Cc1cccc(-n2c(O)c(/C=N/N3CCOCC3)c(=O)[nH]c2=S)c1	inactive
COc1ccccc1NC(=O)CSc1ncn(-c2ccccc2)n1	inactive
O=C(NCc1ccco1)C1CC2CCC1C2 (stereo not given)	inactive
Nc1ccc(-c2cn3cccnc3n2)cc1	inactive
O=C(Cc1ccccc1)OCCNC(=O)c1cccnc1	inactive
CNc1ccc(Br)cc(C(=O)/C=C/c2cc(OC)ccc2OC)c1=O	inactive
CCn1c(SCC(=O)Nc2ccc(C)cc2)nnc1-c1ccc(O)cc1	inactive
COc1ccc(C2CC(=O)C3=C(C2)Nc2ccccc2NC3c2coc3ccccc3c2=O)cc1OC (stereo not given)	inactive
Cc1ccc(C)n1-c1ccc(N2CCOCC2)cc1	inactive
CCOC(=O)C1=C(Cc2ccc(C)cc2)C(=O)c2ccccc2C1=O	inactive
O=C(/C=C/c1ccc(-c2ccccc2[N+](=O)[O-])o1)c1ccccc1	inactive
COc1ccc(CC(=O)Nc2ccccc2Oc2ccccc2)cc1	inactive
OCCC1CN(Cc2nc3c(s2)CCCC3)CCN1Cc1ccsc1 (stereo not given)	inactive
Cc1ccc(-c2cc(-c3ccc(F)cc3)c(C#N)c(N)n2)o1	inactive

SMILES	percent span
O=C1C(Cl)=C(N2CCN(c3ccccc3[N+](=O)[O-])CC2)C(=O)c2ccccc21	inactive
CNC(=O)CC1C(=O)N(Cc2ccccc2)C(=S)N1NC(=O)c1cccc(F)c1 (stereo not given)	inactive
Cc1[nH]n(C(N)=S)c(=O)c1N=Nc1ccc(S(=O)(=O)N2CCCCCC2)cc1	inactive
O=C(COCC(=O)NCc1ccccc1)NCc1ccccc1	inactive
CN(C)c1ccc(C(=O)/C=C/c2ccc(Br)cc2)cc1	inactive
Cc1cc[n+]2cc(-c3cccc([N+](=O)[O-])c3)c(-c3cccc([N+](=O)[O-])c3)cc2c1	inactive
CC1(C)Cc2c(ccc3ccccc23)/C(=C/C(=O)N2CCCCC2)N1	inactive
CCN(CC)c1ccc(Nc2nc(N3CCOCC3)c3ccccc3n2)cc1	inactive
CN(C)c1ccc(C=C2C(=O)NC(=O)NC2=O)cc1[N+](=O)[O-]	inactive
Cc1ccc(/C=C2/NC(=O)N(Cc3ccc(Br)cc3)C2=O)o1	inactive
Cc1ccc(-c2cc(-c3ccc4c(c3)OCO4)c(C#N)c(N)n2)o1	inactive
O=C(CSc1nnc(-c2ccco2)n1Cc1ccccc1)c1ccccc1	inactive
Cc1cc(C)nc(/N=C(\N)N2CCc3ccccc32)n1	inactive
COc1cccc2c(SCC(=O)N/N=C/c3ccc(O)c(O)c3)cc(C)nc12	inactive
Cc1ccc(-c2cc(-c3ccccc3)c(C#N)c(N)n2)o1	inactive
CCOC(=O)CCCNC(=O)c1cncc(O)c1	inactive
CN1CCS/C1=C/C=C1/SC(=S)N(Cc2ccccc2)C1=O	inactive
COc1ccc(CC(=O)Nc2ccc(-c3nc4cc(C)ccc4o3)c(O)c2)cc1OC	inactive
Cc1cc(NC(=O)CCCC(=O)NCc2ccccc2)no1	inactive
CN1/C(=C\C(=O)Nc2ccc(Cl)cc2)C(C)(C)c2ccccc21	inactive
CCOc1ccc(C2=Nn3c(nnc3-c3ccccn3)SC2)cc1	inactive
COc1ccc(OC)c(-n2c(-c3ccc(C)cc3)n[nH]c2=S)c1	inactive
O=C(CSc1nnc(-c2cccs2)n1Cc1ccco1)c1ccc2c(c1)OCO2	inactive
CC(C)(C)C1CCC(=NNC(=O)c2cc3c(s2)CCCC3)CC1 (stereo not given)	inactive
O=C(Cn1c(-c2ccccc2)noc1=O)N1CCC(Cc2ccccc2)CC1	inactive
COc1ccccc1Cn1nnc2c(=O)[nH]c(C3CCN(C(=O)c4ccc(C)cc4)CC3)nc21	inactive
COc1ccc(/C=C(/C(=O)c2cccs2)N2C=CC=CC2=C(C#N)C#N)cc1	inactive

SMILES	percent span
BrC(=C\c1ccccc1)/C=N/N1CCN(c2ccccc2)CC1	inactive
COc1ccc(N2C(=O)C(Cl)=C(Oc3cccc(OC)c3)C2=O)cc1	inactive
CCOC(=O)C1CCCN(c2ncnc3c2cnn3-c2cccc(C)c2)C1 (stereo not given)	inactive
O=C(COc1ccc(Br)cc1CNC1CCCCC1)NCCc1ccccc1	inactive
COc1ccc(C2CN(C)CC2C(=O)c2ccc(F)cc2)cc1Cl (stereo not given)	inactive
COc1ccc(Cl)cc1-n1c(C)cc(C=O)c1C	inactive
O=C(Nc1nnc(SCc2ccccn2)s1)C1CC(=O)N(c2ccccc2)C1 (stereo not given)	inactive
COc1cc(C2Nc3cccc4cccc(c34)N2)cc(OC)c1O	inactive
COC(=O)c1ccc(/C=N/NC(=O)CC(=O)NCc2cccnc2)cc1	inactive
NC(=O)CSc1nnc(Cn2cnc3ccccc32)o1	inactive
CN(Cc1cccs1)C(=O)CCc1c[nH]c2ccccc12	inactive
O=c1c2c(-c3ccccc3)csc2nc2c3ccccc3c(NCCN3CCOCC3)nn12	inactive
COc1cc(C=Nc2cccc(C)c2)c(O)c([N+](=O)[O-])c1	inactive
CCOC(=O)C1(Cc2cccc(OC)c2)CCN(Cc2cccc(OC)c2OC)CC1	inactive
CC(NCc1ccc(-c2ccccc2)cc1)C(O)c1ccccc1 (stereo not given)	inactive
Cc1ccc(/C=C/C(=O)Nc2ccc([N+](=O)[O-])c(NC(=O)/C=C/c3ccc(C)o3)c2)o1	inactive
CCc1nnc(NS(=O)(=O)c2ccc(N=CC3=C(O)CC(C)(C)CC3=O)cc2)s1	inactive
COc1ccc2cc(CN(CCc3ccccc3)Cc3nnnn3CC3CCCO3)c(=O)[nH]c2c1 (stereo not given)	inactive
CC[n+]1c(/C=C/C=C/N(C(C)=O)c2ccccc2)sc2ccccc21	inactive
Cc1ccc(Nc2nc(-c3ccccc3)c(CC(=O)O)s2)cc1	inactive
CCOCCOc1nc2c(c(=O)n(C)c(=O)n2C)n1CCc1ccccc1	inactive
CN(C)CCNC(=O)C(=O)C1C(=O)Nc2ccccc21 (stereo not given)	inactive
COc1ccc(C)cc1Nc1ccc(C(=O)O)cc1[N+](=O)[O-]	inactive
Cc1sc(NC(=O)Cn2cnnn2)nc1-c1ccc(Cl)cc1	inactive
